Laboratory results published in EP4685482A1, “METHOD FOR SELECTING DRUGS FOR THE TREATMENT OF MENTAL HEALTH PATHOLOGIES” (Neomente Corp, priority 2023, dated 2024).

Tested on: Patients diagnosed with unipolar depression
Assay: Clinical follow-up of patients with the SIGH-D-17 scale (treatment as usual vs guided by the Clinical Decision Support System), case examples
Format: in vivo
Conditions: for response to treatment regimen (patient history): Example 1: regimen of escitalopram, sertraline, risperidone, clonazepam and lamotrigine
Procedure: Patients diagnosed with unipolar depression were recruited and divided into two groups. The first group Treatment as Usual (TAU) received treatment according to psychiatry clinical guidelines. The second group received Clinical Decision Support System Guided (CCDSg) additional support from the method for selecting neuropsychiatric drugs. Follow-up was conducted using the SIGH-D-17 scale in both groups at the beginning of treatment and 8 and 12 weeks. […]
Based on the algorithm results, it was decided to discontinue the previous pharmacological regimen and initiate a new one consisting of desvenlafaxine and aripiprazole. A significant response was observed within 8 weeks of treatment initiation (69% reduction in SIGH-D-17 scale).
While awaiting the results of the application of this method, pharmacological treatment with sertraline was initiated. […] These findings are consistent with the genetic variations found (alteration of the CYP2C19 enzyme). Subsequently, and with the results of the application of this method, pharmacological treatment with vortioxetine was implemented, achieving remission at 12 weeks.
(53% reduction in SIGH-D-17 scale).

[1] = Example 1: person, severe unipolar depression, new regimen consisting of desvenlafaxine and aripiprazole, within 8 weeks of treatment initiation
[2] = Example 3: person, treatment-resistant unipolar depression
[3] = Example 4: person, depressive episode

Row | Compound | response (pharmacological history) [2] | response to treatment regimen (patient history) | other results
1 | O=C1CCc2ccc(OCCCCN3CCN(c4cccc(Cl)c4Cl)CC3)cc2N1 [Aripiprazole] |  |  | reduction in SIGH-D-17 scale [1]: 69%
2 | O=c1ccc2ccc(OCCCCN3CCN(c4cccc5sccc45)CC3)cc2[nH]1 [Brexpiprazole] |  |  | reduction in SIGH-D-17 scale (Example 3: person, treatment-resistant unipolar depression, quetiapine gradually replaced by brexpiprazole, at 8 weeks of treatment): 53%
3 | CN(C)C(=O)N[C@H]1CC[C@H](CCN2CCN(c3cccc(Cl)c3Cl)CC2)CC1 [Cariprazine] | no response |  | 
4 | CN(C)CCCN1c2ccccc2CCc2ccc(Cl)cc21 [Clomipramine] | no response |  | 
5 | CN(C)CC(c1ccc(O)cc1)C1(O)CCCCC1 (stereo not shown) [Desvenlafaxine] | no response |  | reduction in SIGH-D-17 scale [1]: 69%
6 | CN(C)CCC[C@@]1(c2ccc(F)cc2)OCc2cc(C#N)ccc21 [Escitalopram] | no response | subtherapeutic response | 
7 | Cc1nc2n(c(=O)c1CCN1CCC(c3noc4cc(F)ccc34)CC1)CCCC2 [Risperidone] |  | subtherapeutic response | 
8 | CN[C@H]1CC[C@@H](c2ccc(Cl)c(Cl)c2)c2ccccc21 [Sertraline] |  | subtherapeutic response | side effects (Example 2: CYP2C19 intermediate metabolizer, treatment had to be discontinued): side effects at low doses
9 | COc1ccc(C(CN(C)C)C2(O)CCCCC2)cc1 (stereo not shown) [Venlafaxine] |  |  | response (pharmacological history) [3]: ineffective
10 | N#Cc1ccc2[nH]cc(CCCCN3CCN(c4ccc5oc(C(N)=O)cc5c4)CC3)c2c1 [Vilazodone] | no response |  | 
11 | Cc1ccc(Sc2ccccc2N2CCNCC2)c(C)c1 [Vortioxetine] | no response |  | reduction in SIGH-D-17 scale (Example 2: person, mild unipolar depression, vortioxetine, remission at 12 weeks): 67%
12 | O=C1CN=C(c2ccccc2Cl)c2cc([N+](=O)[O-])ccc2N1 [clonazepam] |  | subtherapeutic response | response (pharmacological history) [3]: poor response
13 | Nc1nnc(-c2cccc(Cl)c2Cl)c(N)n1 [lamotrigine] |  | subtherapeutic response | response (pharmacological history) [3]: ineffective
